≈ marks a conversion by molar mass, not a printed value. Where two headings read alike, the source gives them in different places.
How the values were obtained:
Assay in all cases: MIC determination by in vitro antifungal assay
Assay type in all cases: cell-based, Candida auris
[1] = test system: C. auris AR Bank #381
Description: (§1) The antifungal agent amphotericin B (AmB) was purchased from VWR (Radnor PA, USA). AmB was dissolved in DMSO at a final concentration of 5 mg/mL and was stored at −20° C., protected from light. Candida albicans American Type Culture Collection (ATCC) 10231 (strain A), C. albicans ATCC 64124 (B), and C. albicans ATCC MYA-2876 (C) were obtained from Utah State University. C. albicans ATCC 90819 (D), C. albicans ATCC MYA-2310 (E), C. albicans ATCC MYA-1237 (F), C. albicans ATCC MYA-1003 (G), Candida glabrata ATCC 2001 (H), Candida krusei ATCC 6258 (I), Candida parapsilosis ATCC 22019 (J), Cryptococcus neoformans ATCC MYA-895 (M), Aspergillus terreus ATCC MYA-3633 (N), and Aspergillus flavus ATCC MYA-3631 (0) were obtained from the American Type Culture Collection (ATCC; Manassas, VA, USA). Aspergillus nidulans ATCC 38163 (P) was obtained from University of Kentucky. Clinically derived Aspergillus fumigatus NRRL 163 (Q), A. fumigatus NRRL 5109 (R), and A. fumigatus NRRL 6113 (S) were obtained from Northern Regional Research Laboratory (NRRL). Candida auris 384 (K), C. auris 390 (L), and fungal strains 381-400 (including 10 C. auris (AR Bank #381-390), 3 Candida duobushaemulonii (AR Bank #391, AR Bank #392, and AR Bank #394), 2 Candida haemulonii (AR Bank #393 and AR Bank #395), 1 Kodameae ohmeri (AR Bank #396), 1 C. krusei (AR Bank #397), 1 Candida lusitaniae (AR Bank #398), and 2 Saccharomyces cerevisiae strains (AR Bank #399 and AR Bank #400)) were part of a larger fungal library from the AR Bank maintained by the Centers for Disease Control and Prevention (CDC; Atlanta, GA, USA). Filamentous fungi and yeasts were cultivated at 35° C. in RPMI 1640 medium (with L-glutamine, without sodium bicarbonate, Sigma-Aldrich, St. Louis, MO) buffered to a pH of 7.0 with 0.165 M morpholinepropanesulfonic acid (MOPS) buffer (Sigma-Aldrich). For cytotoxicity assays, HepG2 and the mouse macrophage cell line J774A.1 were obtained from University of Kentucky. The human embryonic kidney cell line, HEK-293, was bought from the ATCC. Mammalian cells were grown in Dulbecco's Modified Eagle's Medium (DMEM) (from VWR) with 10% fetal bovine serum (FBS) (from VWR) and 1% Pen/Strep (from ATCC). Cell lines were cultured at 37° C. with 5% CO2 and passaged by trypsinization with 0.05% trypsin: 0.53 mM EDTA (from Sigma-Aldrich).
(§2) From the actively growing yeast culture, 100 µL were then transferred to 900 μL of RPMI 1640 medium and re-adjusted to achieve OD600 of 0.12 (˜1×10^6 CFU/mL). The cell suspension was further diluted to achieve 1:100 in RPMI 1640 medium.

[2] = test system: C. auris AR Bank #382
Description: as §1, §2

[3] = test system: C. auris AR Bank #383
Description: as §1, §2

[4] = test system: C. auris AR Bank #385
Description: as §1, §2

[5] = test system: C. auris AR Bank #386
Description: as §1, §2

[6] = test system: C. auris AR Bank #387
Description: as §1, §2

[7] = test system: C. auris AR Bank #388
Description: as §1, §2

[8] = test system: C. auris AR Bank #389
Description: as §1, §2

[9] = Candidozyma auris, C. auris AR Bank # 381 (Table 2B), read-out: MIC
[10] = Candidozyma auris, C. auris AR Bank # 382 (Table 2B), read-out: MIC
[11] = Candidozyma auris, C. auris AR Bank # 383 (Table 2B), read-out: MIC
[12] = Candidozyma auris, C. auris AR Bank # 385 (Table 2B), read-out: MIC
[13] = Candidozyma auris, C. auris AR Bank # 386 (Table 2B), read-out: MIC
[14] = Candidozyma auris, C. auris AR Bank # 387 (Table 2B), read-out: MIC
[15] = Candidozyma auris, C. auris AR Bank # 388 (Table 2B), read-out: MIC
[16] = Candidozyma auris, C. auris AR Bank # 389 (Table 2B), read-out: MIC
[17] = Candidozyma auris, C. auris AR Bank #381, read-out: MIC
[18] = Candidozyma auris, C. auris AR Bank #382, read-out: MIC
[19] = Candidozyma auris, C. auris AR Bank #383, read-out: MIC
[20] = Candidozyma auris, C. auris AR Bank #385, read-out: MIC
[21] = Candidozyma auris, C. auris AR Bank #386, read-out: MIC
[22] = Candidozyma auris, C. auris AR Bank #387, read-out: MIC
[23] = Candidozyma auris, C. auris AR Bank #388, read-out: MIC
[24] = Candidozyma auris, C. auris AR Bank #389, read-out: MIC

SMILES	MIC [1, 17] [µg/mL]	MIC [2, 18] [µg/mL]	MIC [3, 19] [µg/mL]	MIC [4, 20] [µg/mL]	MIC [5, 21] [µg/mL]	MIC [6, 22] [µg/mL]	MIC [7, 23] [µg/mL]	MIC [8, 24] [µg/mL]	other results
O=C(NNc1ccc(Cl)cc1)c1nc(F)ccc1F [Compound 8e]									MIC ([1]; C. auris AR Bank # 381 (Table 2B)): 7.8 μg/mL^−1; MIC ([2]; C. auris AR Bank # 382 (Table 2B)): 7.8 μg/mL^−1; MIC ([3]; C. auris AR Bank # 383 (Table 2B)): 7.8 μg/mL^−1; MIC ([4]; C. auris AR Bank # 385 (Table 2B)): 3.9 μg/mL^−1; MIC ([5]; C. auris AR Bank # 386 (Table 2B)): 15.6 μg/mL^−1; MIC ([6]; C. auris AR Bank # 387 (Table 2B)): 7.8 μg/mL^−1; MIC ([7]; C. auris AR Bank # 388 (Table 2B)): 15.6 μg/mL^−1; MIC ([8]; C. auris AR Bank # 389 (Table 2B)): 7.8 μg/mL^−1
COc1ccc(NNC(=O)c2nc(F)ccc2F)cc1 [Compound 8f]									MIC [1, 9]: 0.98 µg/mL (≈ 3.51 µM); MIC [2, 10]: 0.98 µg/mL (≈ 3.51 µM); MIC [3, 11]: 1.95 µg/mL (≈ 6.98 µM); MIC [4, 12]: 0.49 µg/mL (≈ 1.75 µM); MIC [5, 13]: 0.98 µg/mL (≈ 3.51 µM); MIC [6, 14]: 0.98 µg/mL (≈ 3.51 µM); MIC [7, 15]: 0.98 µg/mL (≈ 3.51 µM); MIC [8, 16]: 0.98 µg/mL (≈ 3.51 µM)
O=C(NNc1ccc(F)cc1F)c1nc(F)ccc1F [Compound 8g]									MIC [1, 9]: 1.95 µg/mL (≈ 6.84 µM); MIC [2, 10]: 1.95 µg/mL (≈ 6.84 µM); MIC [3, 11]: 1.95 µg/mL (≈ 6.84 µM); MIC [4, 12]: 0.49 µg/mL (≈ 1.72 µM); MIC [5, 13]: 1.95 µg/mL (≈ 6.84 µM); MIC [6, 14]: 0.98 µg/mL (≈ 3.44 µM); MIC [7, 15]: 0.98 µg/mL (≈ 3.44 µM); MIC [8, 16]: 1.95 µg/mL (≈ 6.84 µM)
O=C(NNc1cccc(Cl)c1)c1cnccn1 [Compound 9b]	0.49 (≈ 1.97 µM)	0.12 (≈ 0.483 µM)	0.24 (≈ 0.965 µM)	0.24 (≈ 0.965 µM)	≤ 0.06	0.24 (≈ 0.965 µM)	0.24 (≈ 0.965 µM)	0.24 (≈ 0.965 µM)	
COc1cccc(NNC(=O)c2cnccn2)c1 [Compound 9c]	1.95 (≈ 7.98 µM)	0.98 (≈ 4.01 µM)	1.95 (≈ 7.98 µM)	7.8 (≈ 31.9 µM)	0.49 (≈ 2.01 µM)	0.98 (≈ 4.01 µM)	3.9 (≈ 16 µM)	0.98 (≈ 4.01 µM)	
O=C(NNc1ccc(Cl)cc1)c1cnccn1 [Compound 9e]									MIC ([1]; C. auris AR Bank #381): 7.8 μg/mL^−1; MIC ([2]; C. auris AR Bank #382): 13.6 μg/mL^−1; MIC ([3]; C. auris AR Bank #383): 3.9 μg/mL^−1; MIC ([4]; C. auris AR Bank #385): 31.3 μg/mL^−1; MIC ([5]; C. auris AR Bank #386): 7.8 μg/mL^−1; MIC ([6]; C. auris AR Bank #387): 13.6 μg/mL^−1; MIC ([7]; C. auris AR Bank #388): 7.8 μg/mL^−1; MIC ([8]; C. auris AR Bank #389): 7.8 μg/mL^−1
COc1ccc(NNC(=O)c2cnccn2)cc1 [Compound 9f]	1.95 (≈ 7.98 µM)	0.98 (≈ 4.01 µM)	0.98 (≈ 4.01 µM)	0.98 (≈ 4.01 µM)	0.49 (≈ 2.01 µM)	1.95 (≈ 7.98 µM)	0.98 (≈ 4.01 µM)	0.98 (≈ 4.01 µM)	
O=C(NNc1ccc(F)cc1F)c1cnccn1 [Compound 9g]	3.9 (≈ 15.6 µM)	1.95 (≈ 7.79 µM)	0.98 (≈ 3.92 µM)	0.98 (≈ 3.92 µM)	0.49 (≈ 1.96 µM)	0.49 (≈ 1.96 µM)	0.49 (≈ 1.96 µM)	0.49 (≈ 1.96 µM)	
